Patent US20050197350A1, “Novel quinoline, tetrahydroquinazoline, and pyrimidine derivatives and methods of treatment related to the use thereof” (TAISHO PHARMACEUTICAL CO., LTD., priority 2003, published 2005)

System: MCH receptors
Experiment: MCH receptor activity class (method not given)
Details: activity class per percent of control at 10^-7 M or IC50

SMILES	class
COc1cc(CNC[C@H]2CC[C@@H](Nc3cc(N(C)C)c4ccccc4n3)CC2)cc(OC)c1O [compound 1133]	3 (Class 3 The value of percent of control at 10^−7 M was more than 60% or the value of IC50 was more than 200 nM.)
CCOc1cc(CNC[C@H]2CC[C@@H](Nc3cc(N(C)C)c4ccccc4n3)CC2)ccc1OC [compound 1134]	3 (Class 3 The value of percent of control at 10^−7 M was more than 60% or the value of IC50 was more than 200 nM.)
CN(C)c1cc(N[C@H]2CC[C@@H](CNCc3c[nH]nc3-c3ccc(C(F)(F)F)cc3)CC2)nc2ccccc12 [compound 1135]	3 (Class 3 The value of percent of control at 10^−7 M was more than 60% or the value of IC50 was more than 200 nM.)
COc1cc(CNC[C@H]2CC[C@@H](Nc3cc(N(C)C)c4ccccc4n3)CC2)cc(OC)c1OC [compound 1136]	3 (Class 3 The value of percent of control at 10^−7 M was more than 60% or the value of IC50 was more than 200 nM.)
COc1cc(CNC[C@H]2CC[C@@H](Nc3cc(N(C)C)c4ccccc4n3)CC2)cc(OC)c1 [compound 1138]	3 (Class 3 The value of percent of control at 10^−7 M was more than 60% or the value of IC50 was more than 200 nM.)
COc1cc(CNC[C@H]2CC[C@@H](Nc3cc(N(C)C)c4ccccc4n3)CC2)cc(I)c1O [compound 1139]	3 (Class 3 The value of percent of control at 10^−7 M was more than 60% or the value of IC50 was more than 200 nM.)
Cc1cc(CNC[C@H]2CC[C@@H](Nc3cc(N(C)C)c4ccccc4n3)CC2)cc(C)c1O [compound 1140]	3 (Class 3 The value of percent of control at 10^−7 M was more than 60% or the value of IC50 was more than 200 nM.)
COc1ccc(CNC[C@H]2CC[C@@H](Nc3cc(N(C)C)c4ccccc4n3)CC2)cc1 [compound 1141]	3 (Class 3 The value of percent of control at 10^−7 M was more than 60% or the value of IC50 was more than 200 nM.)
CN(C)c1cc(N[C@H]2CC[C@@H](CNCc3ccc4c(c3)OCCO4)CC2)nc2ccccc12 [compound 1142]	3 (Class 3 The value of percent of control at 10^−7 M was more than 60% or the value of IC50 was more than 200 nM.)
CN(C)c1cc(N[C@H]2CC[C@@H](CNCc3cccc(Br)c3)CC2)nc2ccccc12 [compound 1143]	3 (Class 3 The value of percent of control at 10^−7 M was more than 60% or the value of IC50 was more than 200 nM.)
COc1cc(OC)c(CNC[C@H]2CC[C@@H](Nc3cc(N(C)C)c4ccccc4n3)CC2)cc1Br [compound 1144]	2 (Class 2: The value of percent of control at 10^−7 M was from 40% to 60% or the value of IC′50 was from 50 nM to 200 nM.)
COc1ccc(Br)cc1CNC[C@H]1CC[C@@H](Nc2cc(N(C)C)c3ccccc3n2)CC1 [compound 1145]	3 (Class 3 The value of percent of control at 10^−7 M was more than 60% or the value of IC50 was more than 200 nM.)
CN(C)c1cc(N[C@H]2CC[C@@H](CNCc3ccc(O)cc3Cl)CC2)nc2ccccc12 [compound 1146]	3 (Class 3 The value of percent of control at 10^−7 M was more than 60% or the value of IC50 was more than 200 nM.)
CN(C)c1cc(N[C@H]2CC[C@@H](CNCc3ccccc3C#N)CC2)nc2ccccc12 [compound 1147]	3 (Class 3 The value of percent of control at 10^−7 M was more than 60% or the value of IC50 was more than 200 nM.)
CN(C)c1cc(N[C@H]2CC[C@@H](CNCc3ccc(Cl)cc3)CC2)nc2ccccc12 [compound 1149]	3 (Class 3 The value of percent of control at 10^−7 M was more than 60% or the value of IC50 was more than 200 nM.)
CCN(CC)c1ccc(CNC[C@H]2CC[C@@H](Nc3cc(N(C)C)c4ccccc4n3)CC2)cc1 [compound 1150]	3 (Class 3 The value of percent of control at 10^−7 M was more than 60% or the value of IC50 was more than 200 nM.)
CN(C)c1ccc(CNC[C@H]2CC[C@@H](Nc3cc(N(C)C)c4ccccc4n3)CC2)cc1 [compound 1151]	3 (Class 3 The value of percent of control at 10^−7 M was more than 60% or the value of IC50 was more than 200 nM.)
CCn1c2ccccc2c2cc(CNC[C@H]3CC[C@@H](Nc4cc(N(C)C)c5ccccc5n4)CC3)ccc21 [compound 1152]	3 (Class 3 The value of percent of control at 10^−7 M was more than 60% or the value of IC50 was more than 200 nM.)
CN(C)c1cc(N[C@H]2CC[C@@H](CNCc3cc(C(F)(F)F)ccc3F)CC2)nc2ccccc12 [compound 1153]	3 (Class 3 The value of percent of control at 10^−7 M was more than 60% or the value of IC50 was more than 200 nM.)
CN(C)c1cc(N[C@H]2CC[C@@H](CNCc3ccc(O)cc3)CC2)nc2ccccc12 [compound 1154]	3 (Class 3 The value of percent of control at 10^−7 M was more than 60% or the value of IC50 was more than 200 nM.)

Same assay, conditions: class by percent of control at 10^-7 M or IC50

SMILES	class
CN(C)c1cc(N[C@H]2CC[C@@H](CNCc3ccc(CO)o3)CC2)nc2ccccc12 [compound 1155]	3 (Class 3 The value of percent of control at 10^−7 M was more than 60% or the value of IC50 was more than 200 nM.)
CC(C)Oc1ccc(CNC[C@H]2CC[C@@H](Nc3cc(N(C)C)c4ccccc4n3)CC2)cc1 [compound 1156]	3 (Class 3 The value of percent of control at 10^−7 M was more than 60% or the value of IC50 was more than 200 nM.)
CCc1ccc(CNC[C@H]2CC[C@@H](Nc3cc(N(C)C)c4ccccc4n3)CC2)s1 [compound 1157]	3 (Class 3 The value of percent of control at 10^−7 M was more than 60% or the value of IC50 was more than 200 nM.)
CN(C)c1cc(N[C@H]2CC[C@@H](CNCC=C(c3ccccc3)c3ccccc3)CC2)nc2ccccc12 [compound 1158]	1 (Class 1: The value of percent of control at 10^−7 M was less than 40% or the value of IC50 was less than 50 nM.)
CCOc1cc(CNC[C@H]2CC[C@@H](Nc3cc(N(C)C)c4ccccc4n3)CC2)ccc1O [compound 1159]	3 (Class 3 The value of percent of control at 10^−7 M was more than 60% or the value of IC50 was more than 200 nM.)
CN(C)c1cc(N[C@H]2CC[C@@H](CNCc3ccc(N(C)C)c4ccccc34)CC2)nc2ccccc12 [compound 1160]	3 (Class 3 The value of percent of control at 10^−7 M was more than 60% or the value of IC50 was more than 200 nM.)
COc1cc(OC)c(CNC[C@H]2CC[C@@H](Nc3cc(N(C)C)c4ccccc4n3)CC2)c(OC)c1 [compound 1161]	2 (Class 2: The value of percent of control at 10^−7 M was from 40% to 60% or the value of IC′50 was from 50 nM to 200 nM.)
CN(C)c1cc(N[C@H]2CC[C@@H](CNCc3cc(Cl)cc(Br)c3O)CC2)nc2ccccc12 [compound 1162]	3 (Class 3 The value of percent of control at 10^−7 M was more than 60% or the value of IC50 was more than 200 nM.)
CN(C)c1cc(N[C@H]2CC[C@@H](CNCc3cccc(C#N)c3)CC2)nc2ccccc12 [compound 1163]	3 (Class 3 The value of percent of control at 10^−7 M was more than 60% or the value of IC50 was more than 200 nM.)
COc1ccc(F)c(CNC[C@H]2CC[C@@H](Nc3cc(N(C)C)c4ccccc4n3)CC2)c1 [compound 1164]	3 (Class 3 The value of percent of control at 10^−7 M was more than 60% or the value of IC50 was more than 200 nM.)
CN(C)c1cc(N[C@H]2CC[C@@H](CNCc3ccccc3SC(F)(F)F)CC2)nc2ccccc12 [compound 1165]	3 (Class 3 The value of percent of control at 10^−7 M was more than 60% or the value of IC50 was more than 200 nM.)
CCOc1ccc(Br)cc1CNC[C@H]1CC[C@@H](Nc2cc(N(C)C)c3ccccc3n2)CC1 [compound 1166]	3 (Class 3 The value of percent of control at 10^−7 M was more than 60% or the value of IC50 was more than 200 nM.)
COc1ccc(CNC[C@H]2CC[C@@H](Nc3cc(N(C)C)c4ccccc4n3)CC2)c(OC)c1C [compound 1167]	3 (Class 3 The value of percent of control at 10^−7 M was more than 60% or the value of IC50 was more than 200 nM.)
CN(C)c1cc(N[C@H]2CC[C@@H](CNCc3ccccc3OC(F)(F)F)CC2)nc2ccccc12 [compound 1168]	3 (Class 3 The value of percent of control at 10^−7 M was more than 60% or the value of IC50 was more than 200 nM.)
CCOc1ccc(OCC)c(CNC[C@H]2CC[C@@H](Nc3cc(N(C)C)c4ccccc4n3)CC2)c1 [compound 1169]	2 (Class 2: The value of percent of control at 10^−7 M was from 40% to 60% or the value of IC′50 was from 50 nM to 200 nM.)
CCOc1ccc(CNC[C@H]2CC[C@@H](Nc3cc(N(C)C)c4ccccc4n3)CC2)c(OCC)c1 [compound 1170]	2 (Class 2: The value of percent of control at 10^−7 M was from 40% to 60% or the value of IC′50 was from 50 nM to 200 nM.)
COc1c(Br)cc(Br)cc1CNC[C@H]1CC[C@@H](Nc2cc(N(C)C)c3ccccc3n2)CC1 [compound 1171]	2 (Class 2: The value of percent of control at 10^−7 M was from 40% to 60% or the value of IC′50 was from 50 nM to 200 nM.)
CN(C)c1cc(N[C@H]2CC[C@@H](CNCc3ccccc3OC(F)F)CC2)nc2ccccc12 [compound 1172]	3 (Class 3 The value of percent of control at 10^−7 M was more than 60% or the value of IC50 was more than 200 nM.)
COc1ccc(F)cc1CNC[C@H]1CC[C@@H](Nc2cc(N(C)C)c3ccccc3n2)CC1 [compound 1173]	3 (Class 3 The value of percent of control at 10^−7 M was more than 60% or the value of IC50 was more than 200 nM.)
CCOc1cc(OCC)c(OCC)cc1CNC[C@H]1CC[C@@H](Nc2cc(N(C)C)c3ccccc3n2)CC1 [compound 1174]	2 (Class 2: The value of percent of control at 10^−7 M was from 40% to 60% or the value of IC′50 was from 50 nM to 200 nM.)
COc1cc(OC)c(OC)cc1CNC[C@H]1CC[C@@H](Nc2cc(N(C)C)c3ccccc3n2)CC1 [compound 1175]	2 (Class 2: The value of percent of control at 10^−7 M was from 40% to 60% or the value of IC′50 was from 50 nM to 200 nM.)
COc1cccc(CNC[C@H]2CC[C@@H](Nc3cc(N(C)C)c4ccccc4n3)CC2)c1OC [compound 1176]	3 (Class 3 The value of percent of control at 10^−7 M was more than 60% or the value of IC50 was more than 200 nM.)
C=CCOc1ccccc1CNC[C@H]1CC[C@@H](Nc2cc(N(C)C)c3ccccc3n2)CC1 [compound 1177]	2 (Class 2: The value of percent of control at 10^−7 M was from 40% to 60% or the value of IC′50 was from 50 nM to 200 nM.)
